From ChEMBL document CHEMBL4385594, “4(3H)-Quinazolinone derivatives: Promising antibacterial drug leads” (Eur J Med Chem, 2019)
≈ marks a conversion by molar mass, not a printed value.

system: Pseudomonas aeruginosa; assay: Antibacterial activity against Pseudomonas aeruginosa NCIM 2036 assessed as reduction in bacterial cell growth at 0.03 to 64 ug/ml incubated for 16 to 18 hrs by CLSI broth microdilution method; format: functional; settings: not given

SMILES | MIC
Cc1ccccc1NC(=O)Nn1c(-c2ccccc2)nc2ccccc2c1=O | 1.56 mg/L (≈ 4.21 µM)

system: Staphylococcus aureus; assay: Antibacterial activity against Staphylococcus aureus assessed as inhibition zone; format: functional; settings: not given

SMILES | inhibition zone (IZ)
Cc1ccc2c(c1)c(=O)n(-c1ccccc1)c1nnc(-c3ccccc3)n21 | 17 mm
Cc1ccc2c(c1)c(=O)n(-c1ccccc1)c1n[nH]c(=S)n21 | 17 mm

system: Helicobacter pylori; assay: Antibacterial activity against Helicobacter pylori assessed as reduction in bacterial cell growth by agar dilution method; format: functional; settings: not given

SMILES | MIC
Nc1nc(-n2c(-c3ccc([N+](=O)[O-])cc3)nc3ccccc3c2=O)nnc1-c1cccc(Cl)c1Cl | 25 mg/L (≈ 49.4 µM)

system: not listed separately; assay: Cytotoxicity against human HepG2 cells assessed as reduction in cell viability at 0 to 50 uM incubated for 48 hrs by MTT assay; format: cell-based; settings: read-out: LD50

SMILES | CC50 at 48 h
CNc1nc(NCc2ccccc2)nc2cc(C)ccc12 | 23 µM
CNc1nc(NCc2ccccc2)nc2cc(Cl)ccc12 | 23 µM
CNc1nc(NCc2ccccc2)nc2ccc(Br)cc12 | 23 µM
CNc1nc(NCc2ccccc2)nc2cc(Br)ccc12 | 23 µM
CNc1nc(NCc2ccccc2)nc2ccc(C)cc12 | 23 µM
CNc1nc(NCc2ccccc2)nc2ccc(Cl)cc12 | 23 µM

system: Acinetobacter baumannii; assay: Antibacterial activity against Acinetobacter baumannii 1646 infected in mouse model of peritonitis assessed as increase in survival rate at 2 mg/kg, ip dosed at 1 hr post infection (reference value: 66%); format: functional; settings: Acinetobacter baumannii, 1646, ip

SMILES | survival at 2 mg/kg
CNc1nc(NCc2ccccc2)nc2cc(C)ccc12 | 90%
CNc1nc(NCc2ccccc2)nc2cc(Cl)ccc12 | 90%
CNc1nc(NCc2ccccc2)nc2ccc(Br)cc12 | 90%
CNc1nc(NCc2ccccc2)nc2cc(Br)ccc12 | 90%
CNc1nc(NCc2ccccc2)nc2ccc(C)cc12 | 90%
CNc1nc(NCc2ccccc2)nc2ccc(Cl)cc12 | 90%

system: Staphylococcus aureus; assay: Antibacterial activity against Staphylococcus aureus; format: functional; settings: not given

SMILES | MIC
Cc1ccc2c(c1)c(=O)n(-c1ccccc1)c1nnc(-c3ccccc3)n21 | 32 mg/L (≈ 90.8 µM)
Cc1ccc2c(c1)c(=O)n(-c1ccccc1)c1n[nH]c(=S)n21 | 32 mg/L (≈ 104 µM)

system: Staphylococcus aureus; assay: Antibacterial activity against methicillin-resistant Staphylococcus aureus assessed as reduction in bacterial cell growth at 0.5 to 512 ug/ml incubated for 24 hrs by CLSI broth microdilution method; format: functional; settings: not given

SMILES | MIC
O=c1c2ccc(F)cc2ncn1CC(O)Cn1cncn1 (stereo not given) | 8 mg/L (≈ 27.7 µM)

system: MCF7; assay: Cytotoxicity against human MCF7 cells assessed as reduction in cell viability at 0.1 to 100 uM by MTT assay; format: functional, cell-based; settings: not given

SMILES | IC50
Cn1cc[n+](C(Cn2cnc3ccc(Cl)cc3c2=O)c2cc3cc(Br)ccc3o2)c1 (stereo not given) | 0.57 to 1 µM
Cn1cc[n+](C(Cn2cnc3ccc(Cl)cc3c2=O)c2cc3ccccc3o2)c1 (stereo not given) | 0.57 to 1 µM
COc1ccc2ncn(CC(c3cc4ccccc4o3)[n+]3ccn(C)c3)c(=O)c2c1 (stereo not given) | 0.57 to 1 µM
Cn1cc[n+](C(Cn2cnc3ccccc3c2=O)c2cc3cc(Br)ccc3o2)c1 (stereo not given) | 0.57 to 1 µM
Cn1cc[n+](C(Cn2cnc3ccccc3c2=O)c2cc3ccccc3o2)c1 (stereo not given) | 0.57 to 1 µM

system: Staphylococcus aureus; assay: Antibacterial activity against Staphylococcus aureus assessed as reduction in bacterial cell growth at 0.03 to 64 ug/ml incubated for 16 to 18 hrs by CLSI broth dilution method; format: functional; settings: not given

SMILES | MIC
N#Cc1ccc(/C=C/c2nc3ccccc3c(=O)n2-c2cccc(OCc3cn(Cc4ccccc4)nn3)c2)cc1 | 0.5 mg/L (≈ 0.932 µM)
N#Cc1ccc(/C=C/c2nc3ccccc3c(=O)n2-c2cccc(OCc3cn(Cc4ccc([N+](=O)[O-])cc4)nn3)c2)cc1 | 2 mg/L (≈ 3.44 µM)
N#Cc1ccc(/C=C/c2nc3ccccc3c(=O)n2-c2cccc(OCc3cn(Cc4ccc(Br)cc4)nn3)c2)cc1 | 16 mg/L (≈ 26 µM)
N#Cc1ccc(/C=C/c2nc3ccccc3c(=O)n2-c2ccc(OCc3cn(Cc4ccc(Br)cc4)nn3)cc2)cc1 | > 64 mg/L
N#Cc1ccc(/C=C/c2nc3ccccc3c(=O)n2-c2cccc(OCc3cn(-c4ccc(C(F)(F)F)cc4)nn3)c2)cc1 | 4 mg/L (≈ 6.77 µM)
N#Cc1ccc(/C=C/c2nc3ccccc3c(=O)n2-c2cccc(OCc3cn(-c4cccc(C(=O)O)c4)nn3)c2)cc1 | 4 mg/L (≈ 7.06 µM)
COc1ccc(Cn2cc(COc3cccc(-n4c(/C=C/c5ccc(C#N)cc5)nc5ccccc5c4=O)c3)nn2)cc1 | 0.5 mg/L (≈ 0.882 µM)
N#Cc1ccc(/C=C/c2nc3ccccc3c(=O)n2-c2cccc(OCc3cn(-c4cccc(Cl)c4)nn3)c2)cc1 | 0.5 mg/L (≈ 0.898 µM)
N#Cc1ccc(/C=C/c2nc3ccccc3c(=O)n2-c2cccc(OCc3cn(Cc4cccc(Br)c4)nn3)c2)cc1 | 0.5 mg/L (≈ 0.812 µM)
Cc1cccc(-n2cc(COc3cccc(-n4c(/C=C/c5ccc(C#N)cc5)nc5ccccc5c4=O)c3)nn2)c1 | 0.5 mg/L (≈ 0.932 µM)
O=c1c2ccccc2nc(/C=C/c2ccc(Cl)cc2)n1-c1cccc(OCc2cn(-c3cccc(F)c3)nn2)c1 | 4 mg/L (≈ 7.27 µM)
COc1ccc(-n2cc(COc3cccc(-n4c(/C=C/c5ccc(C#N)cc5)nc5ccccc5c4=O)c3)nn2)cc1 | 4 mg/L (≈ 7.24 µM)
N#Cc1ccc(/C=C/c2nc3ccccc3c(=O)n2-c2cccc(OCc3cn(-c4cccc(F)c4)nn3)c2)cc1 | 0.5 mg/L (≈ 0.925 µM)

system: Staphylococcus aureus; assay: Antibacterial activity against Staphylococcus aureus NCIM 2901 assessed as reduction in bacterial cell growth at 0.03 to 64 ug/ml incubated for 16 to 18 hrs by CLSI broth microdilution method; format: functional; settings: not given

SMILES | MIC
Cc1ccccc1NC(=O)Nn1c(-c2ccccc2)nc2ccccc2c1=O | 1.56 mg/L (≈ 4.21 µM)

system: Acinetobacter baumannii; assay: Antibacterial activity against multidrug-resistant Acinetobacter baumannii assessed as reduction in bacterial cell growth incubated for 24 hrs by broth dilution method; format: functional; settings: not given

SMILES | MIC
CNc1nc(NCc2ccccc2)nc2cc(C)ccc12 | 0.5 µM (≈ 0.139 µg/mL)
CNc1nc(NCc2ccccc2)nc2cc(Cl)ccc12 | 0.5 µM (≈ 0.149 µg/mL)
CNc1nc(NCc2ccccc2)nc2ccc(Br)cc12 | 0.5 µM (≈ 0.172 µg/mL)
CNc1nc(NCc2ccccc2)nc2cc(Br)ccc12 | 0.5 µM (≈ 0.172 µg/mL)
CNc1nc(NCc2ccccc2)nc2ccc(C)cc12 | 0.5 µM (≈ 0.139 µg/mL)
CNc1nc(NCc2ccccc2)nc2ccc(Cl)cc12 | 0.5 µM (≈ 0.149 µg/mL)

system: Bacillus subtilis; assay: Antibacterial activity against Bacillus subtilis MTCC 441 assessed as reduction in bacterial cell growth at 0.03 to 64 ug/ml incubated for 16 to 18 hrs by CLSI broth microdilution method; format: functional; settings: not given

SMILES | MIC
Cc1ccccc1NC(=O)Nn1c(-c2ccccc2)nc2ccccc2c1=O | 1.56 mg/L (≈ 4.21 µM)
